Test results taken from patent publication US9717248B2, “Antibacterial micro- and nanoparticles comprising a chlorhexidine salt, method of production and uses thereof” (The University of Bristol, priority 2013, dated 2017).
Where two headings read alike, the source gives them in different places.

How the values were obtained:
[1] = Elution of CHX from functionalised borosilicate glass surfaces (UV spectrophotometry); type: physicochemical; details: coated glass coverslips in deionised water, 14-day period
Protocol: Chlorhexidine based salts were prepared by combining, at room temperature and under rapid stirring, 100 mL chlorhexidine (as the digluconate salt in aqueous solution at a concentration of 10 mM) and 100 mL of one of a range of anions in aqueous solution, also at an initial concentration of 10 mM, to effect final total concentrations of 5 mM of each. The precipitate was then allowed to adhere on borosilicate glass coverslips. Coverslips (Agar Scientific, Stansted, UK) were cleaned by 10 minutes ultrasonication in acetone followed by 10 minutes ultrasonication in industrial methylated spirits and allowed to air dry. They were immersed in the 200 mL suspension described above while it was rapidly stirred using a magnetic stirring plate. Coverslips were immersed for 30 seconds, removed, immersed in deionised water for 10 seconds to rinse, blotted to remove excess liquid and allowed to dry in air. The elution of soluble CHX from the functionalised glass surfaces was examined using ultraviolet spectrophotometry. 8 specimens of each type were placed in individually labelled cuvettes suitable for ultraviolet spectrophotometry. 2.5 mL deionised water was added to the cuvettes and they were sealed tightly using cuvette lids. These were agitated on an orbital shaker rotating at 150 rpm. […]

[2] = Elution of CHX from CHX-HMP functionalised materials (UV spectrophotometry); type: physicochemical
Protocol: 200 mL of the colloidal suspension was prepared using freshly-prepared reagents (to prevent hydrolysis of the HMP). The specimen was immersed in the rapidly stirred colloid for 30 s, then removed and immersed in deionised water for 10 s to rinse, and then blotted to remove excess liquid and allowed to dry in air.
8 specimens of each material coated with CHX-HMP-5 and CHX-HMP-0.5 nanoparticles were placed in individually labelled cuvettes suitable for ultraviolet spectrophotometry. Deionised water was added to the cuvettes and they were sealed tightly using cuvette lids. These were agitated on an orbital shaker rotating at 150 rpm. The cuvettes were kept sealed and were sampled for chlorhexidine concentration at intervals over a 60-90 day period. Control sets were prepared where the specimens were immersed in deionised water and where they were immersed in a 25 μM CHX solution, which is the concentration of aqueous CHX residual in the CHX-HMP-5 colloidal suspension.

MRSA = assay: Growth of microorganisms on polyurethane specimens; type: cell-based, Staphylococcus aureus; set-up: key: −: complete inhibition; +: slight growth (growth observed at dilutions between 10^−1-10^−3); ++: moderate growth (growth observed at dilutions between 10^−4-10^−6); +++: high growth (growth at dilutions between 10^−7-10^−12); details: 24 h incubation in bacteria growth medium
Text: (§1) Extensive microbiology work has also been completed. […] Key: −complete inhibition; +slight growth (growth observed at dilutions between 10^−1-10^−3); ++ moderate growth (growth observed at dilutions between 10^−4-10^−6); +++ high growth (growth at dilutions between 10^−7-10^−12).

E. coli = assay: Growth of microorganisms on polyurethane specimens; type: cell-based, Escherichia coli; set-up: key: −: complete inhibition; +: slight growth (growth observed at dilutions between 10^−1-10^−3); ++: moderate growth (growth observed at dilutions between 10^−4-10^−6); +++: high growth (growth at dilutions between 10^−7-10^−12); details: 24 h incubation
Text: as §1

P aeruginosa = assay: Growth of microorganisms on polyurethane specimens; type: cell-based, Pseudomonas aeruginosa; set-up: key: −: complete inhibition; +: slight growth (growth observed at dilutions between 10^−1-10^−3); ++: moderate growth (growth observed at dilutions between 10^−4-10^−6); +++: high growth (growth at dilutions between 10^−7-10^−12); details: 24 h incubation
Text: as §1

K. pneumoniae = assay: Growth of microorganisms on polyurethane specimens; type: cell-based, Klebsiella pneumoniae; set-up: key: −: complete inhibition; +: slight growth (growth observed at dilutions between 10^−1-10^−3); ++: moderate growth (growth observed at dilutions between 10^−4-10^−6); +++: high growth (growth at dilutions between 10^−7-10^−12); details: 24 h incubation
Text: as §1

[3] = system: Methicillin-resistant Staphylococcus aureus (MRSA; NCTC13142); assay: Minimum inhibitory concentration, planktonic bacteria; type: cell-based; details: 16 h, 37° C., OD 620 nm, listed as 25 μM chlorhexidine
Protocol: (§2) Methicillin-resistant Staphylococcus aureus (MRSA; NCTC13142) was cultured in Mueller-Hinton media. Pseudomonas aeruginosa NCIMB 8626 (ATCC 9027) was cultured in nutrient broth (NB) or nutrient agar (NA). All cultures were incubated at 37° C. aerobically throughout the study.
(§3) Cultures were incubated for 16 h at 37° C. in aerobic conditions, optical density (CD) readings were measured at 620 nm (A620) using a standard microtitre plate reader (SpectroStar Nano; BMG Labtech).

[4] = system: Pseudomonas aeruginosa NCIMB 8626 (ATCC 9027); assay: as above; type: cell-based; details: P. aeruginosa, 16 h; value for CHX-HMP-5 is minimum tested
Protocol: as §2, §3

MRSA biofilm = assay: Static biofilm model (crystal violet); type: cell-based, Staphylococcus aureus; details: MRSA 48 h static biofilm, 2 h treatment; word qualifies 'disruption'
Protocol: (§4) Bacterial strains were initially grown for 16 h and these stationary phase cultures were harvested by centrifugation, and adjusted to OD650=0.1. Biofilms were grown in 50 μL appropriate media at 37° C. for 48 h, aerobically then the media was removed and discarded. Loosely adherent bacteria were removed by washing the biofilms twice with 100 μl PBS. Chlorhexidine or chlorhexidine nanoparticles diluted in PBS were added to the biofilms using a doubling dilution as described above (0-25 μM). The plates were incubated for 2 h at 37° C.; to estimate biomass, unattached cells were gently aspirated and discarded, and adherent cells were washed twice with PBS and stained with crystal violet (0.25% w/v) for 10 min; following a further two washes with PBS, cell-bound crystal violet was re-solubilized with 7% acetic acid, and absorbance measured at 595 nm (A595).

P. aeruginosa biofilm = assay: Static biofilm model (crystal violet); type: cell-based, Pseudomonas aeruginosa; details: P. aeruginosa 48 h static biofilm, 2 h treatment; word qualifies 'disruption'
Protocol: as §4

MRSA bacteria = assay: Microbiology on EVA samples functionalised with CHX nanoparticles; type: cell-based, Staphylococcus aureus; details: EVA specimens, 18 h incubation in 1 mL growth medium
Protocol: EVA specimens were functionalised by 30 s immersion in a colloidal suspension of CHX-HMP-5 in water followed by 10 s immersion in deionised water (“low concentration”) or without subsequent immersion in deionised water (“high concentration”). These samples were then exposed to cultures of MRSA bacteria. They were then immersed in 1 mL, growth medium and incubated for 18 h. According to the release experiments in this time the EVA specimen should release around 6 μM per m^2 material. Surface area of the specimen was 0.000182 m^2 so the expected total release should be […] CHX into 1 mL giving a resultant concentration of 1.1 μM CHX.

[5] = composite resins supplemented with pulverised CHX diacetate; cited from earlier work
S. mutans [6] = assay: Reported MIC for S. mutans; type: cell-based; details: Streptococcus mutans, conversion of the reported 0.125%
S. mutans [7] = details: reported; cited from earlier work
[8] = result in words, 'Little or no' continues 'significant release'

## N=C(NCCCCCCNC(=N)NC(=N)Nc1ccc(Cl)cc1)NC(=N)Nc1ccc(Cl)cc1 [compound 2, chlorhexidine]
[1]
  CHX Release Period: 48 to 72 h

## N=C(NCCCCCCNC(=N)NC(=N)Nc1ccc(Cl)cc1)NC(=N)Nc1ccc(Cl)cc1 [Comparative Example 7, chlorhexidine]
[2]; [8]
  CHX Release Period: Little or no

## N=C(NCCCCCCNC(=N)NC(=N)Nc1ccc(Cl)cc1)NC(=N)Nc1ccc(Cl)cc1 [80 μM CHX, chlorhexidine]
MRSA
  growth of microorganisms on polyurethane specimens: ++
E. coli
  growth of microorganisms on polyurethane specimens: ++
P aeruginosa
  growth of microorganisms on polyurethane specimens: ++
K. pneumoniae
  growth of microorganisms on polyurethane specimens: ++

## N=C(NCCCCCCNC(=N)NC(=N)Nc1ccc(Cl)cc1)NC(=N)Nc1ccc(Cl)cc1 [compound 8, chlorhexidine]
[3]
  MIC, soluble CHX conc: not efficacious
[4]
  MIC, soluble CHX conc: P.a.: (25 μM)
MRSA biofilm
  Effect on biofilm: MRSA: slight
P. aeruginosa biofilm
  Effect on biofilm: P.a.: slight
MRSA bacteria
  recovery of MRSA / efficacy against MRSA: not efficacious

## N=C(NCCCCCCNC(=N)NC(=N)Nc1ccc(Cl)cc1)NC(=N)Nc1ccc(Cl)cc1 [CHX diacetate]
[5]
  time to plateau of CHX release: around 7 days

## N=C(NCCCCCCNC(=N)NC(=N)Nc1ccc(Cl)cc1)NC(=N)Nc1ccc(Cl)cc1 [CHX digluconate]
S. mutans [6]
  MIC: ~1400 µM
S. mutans [7]
  MIC: 0.125 % by mass

## N=C(NCCCCCCNC(=N)NC(=N)Nc1ccc(Cl)cc1)NC(=N)Nc1ccc(Cl)cc1 [Comparative Example 5, chlorhexidine]
[2]; functionalised material in deionised water, 60-90 day period
  CHX Release Period: >60 days

## N=C(NCCCCCCNC(=N)NC(=N)Nc1ccc(Cl)cc1)NC(=N)Nc1ccc(Cl)cc1 [Comparative Example 4, chlorhexidine]
[2]; [8]
  CHX Release Period: No release

## N=C(NCCCCCCNC(=N)NC(=N)Nc1ccc(Cl)cc1)NC(=N)Nc1ccc(Cl)cc1 [Comparative Example 6, chlorhexidine]
[2]; [8]
  CHX Release Period: No release
